Data: patent US6291657A (priority 1993, dated 2001)

Assays:
[1] = tested on: glycolipid and phospholipid species in HL-60 cells; assay: 2D-TLC analysis of total HL-60 lipids labelled with [14C]-palmitic acid; type: cell-based, human; details: 2D-TLC (FIG. 2)
Protocol: 2D-TLC separation was made of total HL-60 lipids labelled with [^14 C]-palmitic acid. Cells were treated with either 0.5 mM NB-DNJ or NB-DGJ or untreated (UT). Lipids were assigned as follows (untreated cells, lefthand panel, FIG. 2A): 1, gangliosides; 2, lysophospatidylcholine; 3, ceramide phosphorylcholine; 4, ceramide phosphorylethanolamine; 5, phospatidylcholine; 6, phosphatidylinositol; 7, phosphatidylethanolamine; 8, phosphatidylglycerol; 9, diglycosylceramide; 10, monoglycosylceramide; 11, cholesterol/fatty acids/neutral lipids; N and N* are unknowns; and 0 is the sample origin. Following NB-DNJ and NB-DGJ treatment (middle and righthand panels, FIGS. 2B and 2C, respectively) species 1 (gangliosides);9 (diglycosylceramide); 10 (monoglycosylceramide) and N* (unknown) were absent. The radiolabelled lipids were visualized by autoradiography.
HL-60 cells were cultured by conventional procedure as previously described by Platt et al., Eur. J. Biochem. 208, 187-193 (1992). HL-60 cells at 5×10^4 cells/ml were cultured in the presence or absence of imino sugars for 24 hr. For labelling, the two dimensional thin layer chromatography (2D-TLC) conventional method of Butters and Hughes was followed [In Vitro 17, 831-838 (1981)]. Briefly, [^14 C]-palmitic acid (56.8 mCi/mmol, ICN/Flow) was added as a sonicated preparation in foetal calf serum (FCS, Techgen, London, U.K., 0.5 μCi/ml) and the cells cultured for a further 3 days maintaining the imino sugars in the medium. The cells were harvested, washed three times with phosphate buffered saline (PBS), extracted in 1 ml chloroform:methanol (2:1 v/v) and separated by 1 dimensional TLC, loading equal counts (1D-TLC, chloroform:methanol:water (65:25:4)). For two dimensional separations the one dimensional separation was performed as described above, the plate dried overnight under vacuum and separated in the second dimension using a solvent of tetrahydrofuran: dimethoxymethane:methanol:water (10:6:4:1). Plates were air dried and exposed to Hyperfilm-MP high performance autoradiography film (Amersham).

WEHI-3B cell lysosomes = assay: Transmission electron microscopy of lysosomes of CBE treated WEHI-3B cells; type: cell-based, murine; details: transmission electron microscopy (FIG. 6)

Compound: CCCCN1C[C@H](O)[C@@H](O)[C@@H](O)[C@H]1CO [NB-DGJ, N-butyl deoxygalactonojirimycin]
- gangliosides, unknown lipid (N*), mono and dihexaside species following treatment ([1]; HL-60, 0.5 mM): absent
- depletion of glycolipid species ([1]; HL-60, 500 μM): total depletion of glycolipid species
- glycolipid accumulation in lysosomes (WEHI-3B cell lysosomes): prevented the glycolipid accumulation
